Values quoted from earlier work as cited in patent US20150190399A1, “NEW DIFFERENTIAL-RELEASE PHARMACEUTICAL COMPOSITION CONTAINING THREE ACTIVE PRINCIPLES” (LANDSTEINER SCIENTIFIC S.A. DE C.V., priority 2012, published 2015).

Conditions: in vivo

- half-life: approximately 2 hours
SMILES: CCCCc1nc(Cl)c(CO)n1Cc1ccc(-c2ccccc2-c2nn[nH]n2)cc1 [Losartan potassium, losartan potassium]
